# Data from US12371464B2, “Polypeptides and uses thereof” (MEDIMMUNE LIMITED, priority 2020, dated 2025).
# Numbered stars: 1 amine (or outer) side, 2 acyl side, 3 side chain; on linkers, the order of the positions; unused ones are H or OH. Bridge positions count the residues as written; N and C are the ends. Square brackets hold non-standard residues; d marks the D form. Side chains are listed from the residue outwards. Peptide text beside a SMILES is read from it. * marks the point of attachment. C18 diacid = O=C(O)CCCCCCCCCCCCCCCCC(=O)*; γGlu = O=C(O)[C@H](CCC(=O)[*:2])N[*:1]; αMeF = C[C@](N)(Cc1ccccc1)C(=O)O; Dab = NCC[C@H](N)C(=O)O; Aib = CC(C)(N)C(=O)O
# Assay: Thioflavin T fibrillation assay
# Format: physicochemical
# Conditions: 1 mg/mL in 25 mM sodium acetate buffer pH 4.0, 37° C., 6 days, orbital shaking; >144 h = no increase
# Procedure, shortened: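 Peptides at 1 mg/mL in 25 mM sodium acetate pH 4.0 were mixed with ThT (0.25 mM stock) and held 6 days at 37 °C with intermittent orbital shaking at 500–750 rpm. Fluorescence (ex 444/em 480 nm) was read every 30 min, with buffer baseline correction and 5 replicates. Value: mean time to a detectable fluorescence increase.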
row,Time taken to detect increase in fluorescence intensity [h],Compound
1,>144,"CC[C@H](C)[C@H](NC(=O)[C@@H]1CCCN1C(=O)CNC(=O)[C@](C)(Cc1ccccc1)NC(=O)[C@H](CC(N)=O)NC(=O)[C@H](CC(N)=O)NC(=O)[C@H](CO)NC(=O)[C@H](CO)NC(=O)[C@H](Cc1c[nH]cn1)NC(=O)[C@H](CCCNC(=N)N)NC(=O)[C@H](CC(C)C)NC(=O)[C@H](Cc1ccccc1)NC(=O)[C@H](CC(N)=O)NC(=O)[C@H](C)NC(=O)[C@H](CC(C)C)NC(=O)[C@H](CCCNC(=N)N)NC(=O)[C@H](CCC(N)=O)NC(=O)[C@@H](NC(=O)[C@H](C)NC(=O)[C@@H]1CSSC[C@H](NC(=O)[C@@H](N)CCCCNC(=O)CC[C@H](NC(=O)CCCCCCCCCCCCCCCCC(=O)O)C(=O)O)C(=O)N[C@@H](CC(N)=O)C(=O)N[C@@H]([C@@H](C)O)C(=O)N[C@@H](C)C(=O)N[C@@H]([C@@H](C)O)C(=O)N1)[C@@H](C)O)C(=O)N[C@@H](CC(C)C)C(=O)N1CCC[C@H]1C(=O)N1CCC[C@H]1C(=O)N[C@H](C(=O)N[C@@H](CC(N)=O)C(=O)N[C@H](C(=O)NCC(=O)N[C@@H](CO)C(=O)N[C@@H](CC(N)=O)C(=O)N[C@H](C(=O)N[C@@H](Cc1ccc(O)cc1)C(N)=O)[C@@H](C)O)C(C)C)[C@@H](C)O [Peptide 19, K(γE-C18diacid)[CNTATC]ATQRLANFLRHSSNN(αMePhe)GPILPPTNVGSNTY-amide] (H-K([γGlu-C18 diacid])CNTATCATQRLANFLRHSSNN[αMeF]GPILPPTNVGSNTY-NH2; disulfide 2-7; N-terminus assumed)"
2,<5,CC[C@H](C)[C@H](NC(=O)[C@@H]1CCCN1C(=O)CNC(=O)[C@H](Cc1ccccc1)NC(=O)[C@H](CC(N)=O)NC(=O)[C@H](CC(N)=O)NC(=O)[C@H](CO)NC(=O)[C@H](CO)NC(=O)[C@H](Cc1c[nH]cn1)NC(=O)[C@@H](NC(=O)[C@H](CC(C)C)NC(=O)[C@H](Cc1ccccc1)NC(=O)[C@H](CC(N)=O)NC(=O)[C@H](C)NC(=O)[C@H](CC(C)C)NC(=O)[C@H](CCCNC(=N)N)NC(=O)[C@H](CCC(N)=O)NC(=O)[C@@H](NC(=O)[C@H](C)NC(=O)[C@@H]1CSSC[C@H](NC(=O)[C@@H](N)CCCCNC(=O)CC[C@H](NC(=O)CCCCCCCCCCCCCCCCC(=O)O)C(=O)O)C(=O)N[C@@H](CC(N)=O)C(=O)N[C@@H]([C@@H](C)O)C(=O)N[C@@H](C)C(=O)N[C@@H]([C@@H](C)O)C(=O)N1)[C@@H](C)O)C(C)C)C(=O)N[C@@H](CC(C)C)C(=O)N1CCC[C@@H]1C(=O)N1CCC[C@H]1C(=O)N[C@H](C(=O)N[C@@H](CC(N)=O)C(=O)N[C@H](C(=O)NCC(=O)N[C@@H](CO)C(=O)N[C@@H](CC(N)=O)C(=O)N[C@H](C(=O)N[C@@H](Cc1ccc(O)cc1)C(N)=O)[C@@H](C)O)C(C)C)[C@@H](C)O [Peptide 104] (H-K([γGlu-C18 diacid])CNTATCATQRLANFLVHSSNNFGPIL[dP]PTNVGSNTY-NH2; disulfide 2-7; N-terminus assumed)
3,>144,"CC[C@H](C)[C@H](NC(=O)[C@@H]1CCCN1C(=O)CNC(=O)[C@H](Cc1ccccc1)NC(=O)[C@H](CC(N)=O)NC(=O)C(C)(C)NC(=O)[C@H](CO)NC(=O)[C@H](CO)NC(=O)[C@H](Cc1c[nH]cn1)NC(=O)[C@@H](NC(=O)[C@H](CC(C)C)NC(=O)[C@H](Cc1ccccc1)NC(=O)[C@H](CC(N)=O)NC(=O)[C@H](C)NC(=O)[C@H](CC(C)C)NC(=O)[C@H](CCCNC(=N)N)NC(=O)[C@H](CCC(N)=O)NC(=O)[C@@H](NC(=O)[C@H](C)NC(=O)[C@@H]1CSSC[C@H](NC(=O)[C@H](CCCCN)NC(=O)[C@@H](N)CCCCNC(=O)CC[C@H](NC(=O)CCCCCCCCCCCCCCCCC(=O)O)C(=O)O)C(=O)N[C@@H](CC(N)=O)C(=O)N[C@@H]([C@@H](C)O)C(=O)N[C@@H](C)C(=O)N[C@@H]([C@@H](C)O)C(=O)N1)[C@@H](C)O)C(C)C)C(=O)N[C@@H](CC(C)C)C(=O)N1CCC[C@H]1C(=O)N1CCC[C@H]1C(=O)N[C@H](C(=O)NC(C)(C)C(=O)N[C@H](C(=O)NCC(=O)N[C@@H](CO)C(=O)N[C@@H](CC(N)=O)C(=O)N[C@H](C(=O)N[C@@H](Cc1ccc(O)cc1)C(N)=O)[C@@H](C)O)C(C)C)[C@@H](C)O [Peptide 80, K(γE-C18diacid)K[CNTATC]ATQRLANFLVHSS(Aib)NFGPILPPT(Aib)VGSNTY-amide] (H-K([γGlu-C18 diacid])KCNTATCATQRLANFLVHSS[Aib]NFGPILPPT[Aib]VGSNTY-NH2; disulfide 3-8; N-terminus assumed)"
4,>144,"CC[C@H](C)[C@H](NC(=O)[C@@H]1CCCN1C(=O)CNC(=O)[C@H](Cc1ccccc1)NC(=O)[C@H](CC(N)=O)NC(=O)C(C)(C)NC(=O)[C@H](CO)NC(=O)[C@H](CO)NC(=O)[C@H](Cc1c[nH]cn1)NC(=O)[C@@H](NC(=O)[C@H](CC(C)C)NC(=O)[C@H](Cc1ccccc1)NC(=O)[C@H](CC(N)=O)NC(=O)[C@H](C)NC(=O)[C@H](CC(C)C)NC(=O)[C@H](CCCNC(=N)N)NC(=O)[C@H](CCC(N)=O)NC(=O)[C@@H](NC(=O)[C@H](C)NC(=O)[C@@H]1CSSC[C@H](NC(=O)[C@H](CCCCN)NC(=O)[C@@H](N)CCCCNC(=O)CC[C@H](NC(=O)CC[C@H](NC(=O)CCCCCCCCCCCCCCCCC(=O)O)C(=O)O)C(=O)O)C(=O)N[C@@H](CC(N)=O)C(=O)N[C@@H]([C@@H](C)O)C(=O)N[C@@H](C)C(=O)N[C@@H]([C@@H](C)O)C(=O)N1)[C@@H](C)O)C(C)C)C(=O)N[C@@H](CC(C)C)C(=O)N1CCC[C@H]1C(=O)N1CCC[C@H]1C(=O)N[C@H](C(=O)N[C@@H](CCCNC(=N)N)C(=O)N[C@H](C(=O)NCC(=O)N[C@@H](CO)C(=O)N[C@@H](CC(N)=O)C(=O)N[C@H](C(=O)N[C@@H](Cc1ccc(O)cc1)C(N)=O)[C@@H](C)O)C(C)C)[C@@H](C)O [Peptide 70, K(γE-γE-C18diacid)K[CNTATC]ATQRLANFLVHSS(Aib)NFGPILPPTRVGSNTY-amide] (H-K([γGlu-γGlu-C18 diacid])KCNTATCATQRLANFLVHSS[Aib]NFGPILPPTRVGSNTY-NH2; disulfide 3-8; N-terminus assumed)"
5,>144,CC[C@H](C)[C@H](NC(=O)[C@@H]1CCCN1C(=O)CNC(=O)[C@H](Cc1ccccc1)NC(=O)[C@H](CC(N)=O)NC(=O)[C@H](CC(N)=O)NC(=O)[C@H](CO)NC(=O)[C@H](CO)NC(=O)[C@H](Cc1c[nH]cn1)NC(=O)C(C)(C)NC(=O)[C@H](CC(C)C)NC(=O)[C@H](Cc1ccccc1)NC(=O)[C@H](CCN)NC(=O)[C@H](C)NC(=O)[C@H](CC(C)C)NC(=O)[C@H](CCCNC(=N)N)NC(=O)[C@H](CCC(N)=O)NC(=O)[C@@H](NC(=O)[C@H](C)NC(=O)[C@@H]1CSSC[C@H](NC(=O)[C@H](CCCCN)NC(=O)[C@@H](N)CCCCNC(=O)CC[C@H](NC(=O)CCCCCCCCCCCCCCCCC(=O)O)C(=O)O)C(=O)N[C@@H](CC(N)=O)C(=O)N[C@@H]([C@@H](C)O)C(=O)N[C@@H](C)C(=O)N[C@@H]([C@@H](C)O)C(=O)N1)[C@@H](C)O)C(=O)N[C@@H](CC(C)C)C(=O)N1CCC[C@H]1C(=O)N1CCC[C@H]1C(=O)N[C@H](C(=O)N[C@@H](CCC(=O)O)C(=O)N[C@H](C(=O)NCC(=O)N[C@@H](CO)C(=O)N[C@@H](CC(N)=O)C(=O)N[C@H](C(=O)N[C@@H](Cc1ccc(O)cc1)C(N)=O)[C@@H](C)O)C(C)C)[C@@H](C)O [Peptide 156] (H-K([γGlu-C18 diacid])KCNTATCATQRLA[Dab]FL[Aib]HSSNNFGPILPPTEVGSNTY-NH2; disulfide 3-8; N-terminus assumed)
6,>144,"CC[C@H](C)[C@H](NC(=O)[C@@H]1CCCN1C(=O)CNC(=O)[C@H](Cc1ccccc1)NC(=O)[C@H](CC(N)=O)NC(=O)C(C)(C)NC(=O)[C@H](CO)NC(=O)[C@H](CO)NC(=O)[C@H](Cc1c[nH]cn1)NC(=O)[C@H](CCCNC(=N)N)NC(=O)[C@H](CC(C)C)NC(=O)[C@H](Cc1ccccc1)NC(=O)[C@H](CC(N)=O)NC(=O)[C@H](C)NC(=O)[C@H](CC(C)C)NC(=O)[C@H](CCCNC(=N)N)NC(=O)[C@H](CCC(N)=O)NC(=O)[C@@H](NC(=O)[C@H](C)NC(=O)[C@@H]1CSSC[C@H](NC(=O)[C@@H](N)CCCCNC(=O)CC[C@H](NC(=O)CCCCCCCCCCCCCCCCC(=O)O)C(=O)O)C(=O)N[C@@H](CC(N)=O)C(=O)N[C@@H]([C@@H](C)O)C(=O)N[C@@H](C)C(=O)N[C@@H]([C@@H](C)O)C(=O)N1)[C@@H](C)O)C(=O)N[C@@H](CC(C)C)C(=O)N1CCC[C@H]1C(=O)N1CCC[C@H]1C(=O)N[C@H](C(=O)N[C@@H](CC(N)=O)C(=O)N[C@H](C(=O)NCC(=O)N[C@@H](CO)C(=O)N[C@@H](CC(N)=O)C(=O)N[C@H](C(=O)N[C@@H](Cc1ccc(O)cc1)C(N)=O)[C@@H](C)O)C(C)C)[C@@H](C)O [Peptide 48, K(γE-C18diacid)[CNTATC]ATQRLANFLRHSS(Aib)NFGPILPPTNVGSNTY-amide] (H-K([γGlu-C18 diacid])CNTATCATQRLANFLRHSS[Aib]NFGPILPPTNVGSNTY-NH2; disulfide 2-7; N-terminus assumed)"
